The source of these data is patent publication US20220193043A1 (CIPLA LIMITED, priority 2019, published 2022).

How the values of data set [1] were obtained:
Bioanalysis was performed using a fit-for-purpose LC-MS/MS method for the quantification of tenofovir in rat plasma samples. The calibration curve (CC) for the method consisted of nine non-zero calibration standards along with a double blank and zero standard samples. Study samples were analyzed along with three sets of quality control samples (18 QC samples; low, medium and high QC samples).
Plasma pharmacokinetic parameters were calculated using the non-compartmental analysis tool of Phoenix software (Version 6.3) and were determined from individual animals in each group. The peak plasma concentration (C), time to achieve peak plasma concentration (Tmax), the area under the plasma concentration-time curve (AUC0-t and AUCinf), AUC Extra (%), elimination half-life (T1/2), clearance (CL), volume of distribution Vd (L/kg) and Mean residence time (MRT) were calculated from intravenous group. The peak plasma concentration (C), time to achieve peak plasma concentration (T), AUC0-t and AUCinf, AUC Extra (%), Mean residence time (MRT) and absolute oral bioavailability (F) were calculated from the oral group.

Another data set has as its system Staphylococcus aurues. Conditions: cited from earlier work.
The conditions of data set [2]: cited from earlier work.

Regarding `[2H]C1([2H])N=C(Nc2c(Cl)ccc3nsnc23)NC1([2H])[2H]` [Tizanidine D4], the “CLF_Obs(PO)” value in data set [1] (rat plasma, 3 mg/kg PO) stood at 405 ± 189 mL/min/kg.
For `COc1ccc2cc3[n+](cc2c1OC)CCc1cc2c(cc1-3)OCO2` [berberine], in the data set with Staphylococcus aurues (berberine alone, in solution), the antimicrobial activity result is recorded as “very weak”. For the same compound, in the data set with Staphylococcus aurues (in combination with 5-Methoxy hydnocarpin (5-MIC), against Staphylococcus aurues), the “increase of antimicrobial activity of berberine” value was 200 folds.
With `Oc1ccc(C=Cc2cc(O)cc(O)c2)cc1` [resveratrol], the water solubility in data set [2] was less than 50 µg/mL.
For the compound “Tizanidine hydrochloride [Tizanidine HCl]”, in data set [1] (rat, in vivo, po, 3 mg/kg), the AUCINF turned out to be 111 ± 20 ng·h/mL, the AUClast was 106 ± 17.7 ng·h/mL and the “Vz/F_obs(PO)” value is given as 71.9 ± 36.1 L/kg.
